In article PMC6540285, “Evaluation of Protein Kinase Inhibitors with PLK4 Cross-Over Potential in a Pre-Clinical Model of Cancer” (International Journal of Molecular Sciences, 2019):

Legend:
CYP2D6 = CYP2D6 (Homo sapiens, UniProt P10635); experiment: SelectScreen P450 Vivid biochemical assay; conditions: 10000nM; substrate EOMCC
RPS6KB2 (p70S6Kb) = RPS6KB2 (p70S6Kb) (Homo sapiens, UniProt Q9UBS0); experiment: SelectScreen kinase profiling, ZLYTE; format: biochemical
SGKL (SGK3) = SGKL (SGK3) (Homo sapiens, UniProt Q96BR1); experiment: SelectScreen kinase profiling, ZLYTE; format: biochemical
MERTK (cMER) A708S = MERTK (cMER) A708S (Homo sapiens, UniProt Q12866, A708S); experiment: SelectScreen kinase profiling, LanthaScreen binding
MERTK (cMER) A708S, sequence (Q12866 21-999 A708S): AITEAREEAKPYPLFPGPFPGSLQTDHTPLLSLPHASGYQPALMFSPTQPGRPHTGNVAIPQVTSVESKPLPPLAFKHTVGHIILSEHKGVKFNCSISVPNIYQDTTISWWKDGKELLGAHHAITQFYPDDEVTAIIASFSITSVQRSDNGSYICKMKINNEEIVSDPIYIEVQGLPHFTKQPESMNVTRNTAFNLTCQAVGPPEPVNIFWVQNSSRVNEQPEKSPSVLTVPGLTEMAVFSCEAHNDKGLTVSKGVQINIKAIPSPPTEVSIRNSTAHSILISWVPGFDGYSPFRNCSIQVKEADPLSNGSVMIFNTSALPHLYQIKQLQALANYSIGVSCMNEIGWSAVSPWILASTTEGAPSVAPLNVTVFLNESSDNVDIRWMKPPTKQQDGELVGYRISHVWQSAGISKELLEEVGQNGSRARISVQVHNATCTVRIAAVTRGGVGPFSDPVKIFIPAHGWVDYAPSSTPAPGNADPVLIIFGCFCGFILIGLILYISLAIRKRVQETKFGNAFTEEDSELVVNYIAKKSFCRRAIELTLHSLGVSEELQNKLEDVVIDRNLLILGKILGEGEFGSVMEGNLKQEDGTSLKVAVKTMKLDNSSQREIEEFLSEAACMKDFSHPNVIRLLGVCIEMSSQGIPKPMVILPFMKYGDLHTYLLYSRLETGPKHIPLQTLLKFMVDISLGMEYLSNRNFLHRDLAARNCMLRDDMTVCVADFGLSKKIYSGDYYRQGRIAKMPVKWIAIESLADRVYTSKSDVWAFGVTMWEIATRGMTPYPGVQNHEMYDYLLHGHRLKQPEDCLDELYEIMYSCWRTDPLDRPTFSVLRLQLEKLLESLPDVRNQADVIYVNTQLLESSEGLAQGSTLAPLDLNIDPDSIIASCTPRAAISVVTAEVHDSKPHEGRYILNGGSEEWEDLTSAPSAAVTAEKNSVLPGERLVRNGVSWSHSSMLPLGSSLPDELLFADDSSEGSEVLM

MAP4K3 (GLK) = MAP4K3 (GLK) (Homo sapiens, UniProt Q8IVH8); experiment: as above
MAP4K3 (GLK), sequence (Q8IVH8 whole entry): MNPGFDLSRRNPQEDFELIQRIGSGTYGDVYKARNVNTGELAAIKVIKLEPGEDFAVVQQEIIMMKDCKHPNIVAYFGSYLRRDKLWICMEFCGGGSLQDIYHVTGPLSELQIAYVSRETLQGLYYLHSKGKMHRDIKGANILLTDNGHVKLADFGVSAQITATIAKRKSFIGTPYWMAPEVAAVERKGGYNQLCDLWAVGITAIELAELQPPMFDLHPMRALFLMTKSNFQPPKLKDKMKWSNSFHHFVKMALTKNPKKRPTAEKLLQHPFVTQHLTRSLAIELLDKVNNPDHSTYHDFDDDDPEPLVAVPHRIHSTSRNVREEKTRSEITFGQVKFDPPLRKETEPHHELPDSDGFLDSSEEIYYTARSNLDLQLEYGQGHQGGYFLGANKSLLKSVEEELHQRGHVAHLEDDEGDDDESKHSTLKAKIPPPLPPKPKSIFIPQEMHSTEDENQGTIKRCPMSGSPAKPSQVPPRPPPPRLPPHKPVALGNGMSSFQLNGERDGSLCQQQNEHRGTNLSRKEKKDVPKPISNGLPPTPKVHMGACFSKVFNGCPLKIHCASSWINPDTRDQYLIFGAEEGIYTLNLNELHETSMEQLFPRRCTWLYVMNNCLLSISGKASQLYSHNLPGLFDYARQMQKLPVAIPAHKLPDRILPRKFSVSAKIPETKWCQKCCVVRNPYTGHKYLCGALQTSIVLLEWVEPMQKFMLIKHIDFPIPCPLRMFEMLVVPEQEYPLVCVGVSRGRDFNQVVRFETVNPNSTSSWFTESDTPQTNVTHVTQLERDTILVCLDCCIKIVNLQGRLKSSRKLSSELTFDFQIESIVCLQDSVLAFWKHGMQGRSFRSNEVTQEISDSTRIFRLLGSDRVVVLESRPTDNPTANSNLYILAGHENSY

RET M918T = RET M918T (Homo sapiens, UniProt P07949, M918T); experiment: as above
EPHB1 = EPHB1 (Homo sapiens, UniProt P54762); experiment: SelectScreen kinase profiling, ZLYTE; format: biochemical; conditions: EPHB1, 10 µM
AXL = AXL (Homo sapiens, UniProt P30530); experiment: SelectScreen kinase profiling, ZLYTE; format: biochemical
AXL, sequence (P30530 26-894): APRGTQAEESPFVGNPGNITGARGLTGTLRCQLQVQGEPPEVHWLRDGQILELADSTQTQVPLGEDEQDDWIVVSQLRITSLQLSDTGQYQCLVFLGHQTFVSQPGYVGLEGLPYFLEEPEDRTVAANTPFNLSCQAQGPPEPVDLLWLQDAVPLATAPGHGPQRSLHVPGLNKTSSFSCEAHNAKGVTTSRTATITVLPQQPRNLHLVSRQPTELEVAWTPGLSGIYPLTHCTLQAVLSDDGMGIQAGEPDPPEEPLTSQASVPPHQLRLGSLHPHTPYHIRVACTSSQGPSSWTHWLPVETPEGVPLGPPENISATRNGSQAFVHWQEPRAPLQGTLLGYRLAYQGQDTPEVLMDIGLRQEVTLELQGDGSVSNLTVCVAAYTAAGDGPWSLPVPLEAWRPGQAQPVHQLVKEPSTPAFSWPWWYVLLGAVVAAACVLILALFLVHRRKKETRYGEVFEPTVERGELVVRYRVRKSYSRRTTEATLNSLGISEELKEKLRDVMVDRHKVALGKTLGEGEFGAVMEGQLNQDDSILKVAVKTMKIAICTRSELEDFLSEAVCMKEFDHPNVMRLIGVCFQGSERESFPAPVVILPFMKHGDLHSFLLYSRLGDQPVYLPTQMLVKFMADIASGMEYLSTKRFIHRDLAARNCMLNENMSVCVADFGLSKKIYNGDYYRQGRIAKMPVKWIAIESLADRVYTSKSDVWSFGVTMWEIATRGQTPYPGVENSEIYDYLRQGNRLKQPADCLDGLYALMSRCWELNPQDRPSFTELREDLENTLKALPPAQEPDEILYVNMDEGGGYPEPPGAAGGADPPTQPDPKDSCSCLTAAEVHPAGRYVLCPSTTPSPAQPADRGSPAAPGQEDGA

PRKACA (PKA) = PRKACA (PKA) (Homo sapiens, UniProt P17612); experiment: SelectScreen kinase profiling, ZLYTE; format: biochemical
SIK1 = SIK1 (Homo sapiens, UniProt P57059); experiment: SelectScreen kinase profiling, LanthaScreen binding; conditions: SIK1, 10 µM
SIK1, sequence (P57059 whole entry): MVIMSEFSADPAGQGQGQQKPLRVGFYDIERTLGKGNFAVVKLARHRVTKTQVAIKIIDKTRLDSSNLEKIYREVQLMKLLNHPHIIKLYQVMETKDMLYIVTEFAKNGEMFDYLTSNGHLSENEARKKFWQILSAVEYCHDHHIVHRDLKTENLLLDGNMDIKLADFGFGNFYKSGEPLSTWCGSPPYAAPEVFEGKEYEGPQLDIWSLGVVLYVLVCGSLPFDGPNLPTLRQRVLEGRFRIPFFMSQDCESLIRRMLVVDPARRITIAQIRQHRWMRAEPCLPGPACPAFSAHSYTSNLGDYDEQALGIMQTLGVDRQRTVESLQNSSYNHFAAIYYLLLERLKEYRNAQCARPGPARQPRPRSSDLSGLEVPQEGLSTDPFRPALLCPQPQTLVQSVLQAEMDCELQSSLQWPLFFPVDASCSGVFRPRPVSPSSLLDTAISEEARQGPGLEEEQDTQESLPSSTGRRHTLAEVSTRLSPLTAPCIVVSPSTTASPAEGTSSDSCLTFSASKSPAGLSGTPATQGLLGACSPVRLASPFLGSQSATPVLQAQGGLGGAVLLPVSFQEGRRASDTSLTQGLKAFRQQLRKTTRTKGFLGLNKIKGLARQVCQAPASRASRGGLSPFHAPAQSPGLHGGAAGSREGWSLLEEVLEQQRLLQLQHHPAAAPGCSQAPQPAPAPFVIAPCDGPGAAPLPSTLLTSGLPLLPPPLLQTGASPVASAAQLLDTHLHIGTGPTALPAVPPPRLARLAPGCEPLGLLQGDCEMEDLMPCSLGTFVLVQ

GRK4 = GRK4 (Homo sapiens, UniProt P32298); experiment: SelectScreen kinase profiling, ZLYTE; format: biochemical; conditions: GRK4, 10 µM
PRKCH (PKC eta) = PRKCH (PKC eta) (Homo sapiens, UniProt P24723); experiment: SelectScreen kinase profiling, ZLYTE; format: biochemical
NEK4 = NEK4 (Homo sapiens, UniProt P51957); experiment: SelectScreen kinase profiling, ZLYTE; format: biochemical; conditions: NEK4, 10 µM
BRAF = BRAF (Homo sapiens, UniProt P15056); experiment: SelectScreen kinase profiling, LanthaScreen binding
JAK2 JH1 JH2 = biological target: T1, JAK2 JH1 JH2 (Homo sapiens, UniProt O60674); experiment: SelectScreen kinase profiling, ZLYTE; format: biochemical; conditions: JAK2 JH1 JH2, 10 µM
T1 construct: JAK2 JH1 JH2

BMPR2 = BMPR2 (Homo sapiens, UniProt Q13873); experiment: SelectScreen kinase profiling, LanthaScreen binding; conditions: BMPR2, 10 µM
MAPK11 (p38 beta) = MAPK11 (p38 beta) (Homo sapiens, UniProt Q15759); experiment: SelectScreen kinase profiling, ZLYTE; format: biochemical
MAPK11 (p38 beta), sequence (Q15759 whole entry): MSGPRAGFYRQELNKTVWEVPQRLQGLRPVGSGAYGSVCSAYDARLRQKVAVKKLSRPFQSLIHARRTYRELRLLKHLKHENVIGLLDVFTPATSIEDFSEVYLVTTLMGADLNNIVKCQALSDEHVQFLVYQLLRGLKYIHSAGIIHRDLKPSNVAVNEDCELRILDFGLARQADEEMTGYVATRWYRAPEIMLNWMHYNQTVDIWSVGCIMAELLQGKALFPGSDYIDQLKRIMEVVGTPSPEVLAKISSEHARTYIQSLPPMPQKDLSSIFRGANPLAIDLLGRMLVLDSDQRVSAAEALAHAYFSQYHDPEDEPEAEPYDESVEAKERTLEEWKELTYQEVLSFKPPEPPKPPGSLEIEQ

BRAF V599E = BRAF V599E (Homo sapiens, UniProt P15056, V600E); experiment: SelectScreen kinase profiling, ZLYTE; format: biochemical
PI4K2B (PI4K2 beta) = PI4K2B (PI4K2 beta) (Homo sapiens, UniProt Q8TCG2); experiment: SelectScreen kinase profiling, Adapta; format: biochemical
EEF2K = EEF2K (Homo sapiens, UniProt O00418); experiment: SelectScreen kinase profiling, ZLYTE; format: biochemical
GSK3B (GSK3 beta) = GSK3B (GSK3 beta) (Homo sapiens, UniProt P49841); experiment: SelectScreen kinase profiling, ZLYTE; format: biochemical
LRRK2 FL = LRRK2 FL (Homo sapiens, UniProt Q5S007); experiment: SelectScreen kinase profiling, Adapta; format: biochemical
PIK3C3 (hVPS34) = PIK3C3 (hVPS34) (Homo sapiens, UniProt Q8NEB9); experiment: SelectScreen kinase profiling, Adapta; format: biochemical
MAP2K6 (MKK6) = MAP2K6 (MKK6) (Homo sapiens, UniProt P52564); experiment: SelectScreen kinase profiling, ZLYTE; format: biochemical
MLK4 = MLK4 (Homo sapiens, UniProt Q5TCX8); experiment: SelectScreen kinase profiling, LanthaScreen binding; conditions: MLK4, 10 µM
MAP3K3 (MEKK3) = MAP3K3 (MEKK3) (Homo sapiens, UniProt Q99759); experiment: as above
ERBB4 (HER4) = ERBB4 (HER4) (Homo sapiens, UniProt Q15303); experiment: SelectScreen kinase profiling, ZLYTE; format: biochemical
CSNK1D (CK1 delta) = CSNK1D (CK1 delta) (Homo sapiens, UniProt P48730); experiment: SelectScreen kinase profiling, ZLYTE; format: biochemical
EPHA1 = EPHA1 (Homo sapiens, UniProt P21709); experiment: SelectScreen kinase profiling, ZLYTE; format: biochemical; conditions: EPHA1, 10 µM
AMPK (A2/B1/G3) = AMPK (A2/B1/G3) (Homo sapiens, UniProt P54646); experiment: SelectScreen kinase profiling, ZLYTE; format: biochemical
SRPK2 = SRPK2 (Homo sapiens, UniProt P78362); experiment: SelectScreen kinase profiling, ZLYTE; format: biochemical; conditions: SRPK2, 10 µM
TEK (TIE2) Y1108F = TEK (TIE2) Y1108F (Homo sapiens, UniProt Q02763, Y1108F); experiment: SelectScreen kinase profiling, LanthaScreen binding
ZAP70 = ZAP70 (Homo sapiens, UniProt P43403); experiment: SelectScreen kinase profiling, ZLYTE; format: biochemical; conditions: ZAP70, 10 µM
ZAP70, sequence (P43403 whole entry): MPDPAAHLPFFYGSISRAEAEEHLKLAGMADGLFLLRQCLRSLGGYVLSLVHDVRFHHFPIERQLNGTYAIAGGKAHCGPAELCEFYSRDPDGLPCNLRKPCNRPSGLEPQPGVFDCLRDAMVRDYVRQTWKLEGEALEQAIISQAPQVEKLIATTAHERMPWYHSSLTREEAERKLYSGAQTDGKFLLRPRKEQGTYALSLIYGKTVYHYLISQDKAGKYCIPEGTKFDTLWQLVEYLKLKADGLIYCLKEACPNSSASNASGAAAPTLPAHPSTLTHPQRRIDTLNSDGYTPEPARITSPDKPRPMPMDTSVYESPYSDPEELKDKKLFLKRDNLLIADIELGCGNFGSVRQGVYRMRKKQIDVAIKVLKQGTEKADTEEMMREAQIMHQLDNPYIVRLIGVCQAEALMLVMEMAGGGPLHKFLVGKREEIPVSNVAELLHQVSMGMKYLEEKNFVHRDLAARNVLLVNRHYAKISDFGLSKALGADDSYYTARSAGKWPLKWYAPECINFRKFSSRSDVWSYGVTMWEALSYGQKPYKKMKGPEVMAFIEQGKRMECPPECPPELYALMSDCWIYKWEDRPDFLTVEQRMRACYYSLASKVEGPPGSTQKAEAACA
From the text: Kinase Technology % Inhibition Avg Kinase Technology % Inhibition Avg […]
TESK1 LanthaScreen 37 ZAP70 ZLYTE 24
cleavage (Thermo Fisher Scientific, USA)

FLT3 ITD = experiment: SelectScreen kinase profiling, LanthaScreen binding; conditions: 10 µM
CDK4/cyclin D3 = CDK4/cyclin D3 (Homo sapiens, UniProt P11802); experiment: SelectScreen kinase profiling, Adapta; format: biochemical; conditions: CDK4/cyclin D3, 10 µM
FGFR3 G697C = FGFR3 G697C (Homo sapiens, UniProt P22607, G697C); experiment: SelectScreen kinase profiling, LanthaScreen binding
NEK9 = NEK9 (Homo sapiens, UniProt Q8TD19); experiment: SelectScreen kinase profiling, ZLYTE; format: biochemical; conditions: NEK9, 10 µM
ULK3 = ULK3 (Homo sapiens, UniProt Q6PHR2); experiment: SelectScreen kinase profiling, LanthaScreen binding; conditions: ULK3, 10 µM

RPS6KB2 (p70S6Kb), sequence (Q9UBS0 whole entry): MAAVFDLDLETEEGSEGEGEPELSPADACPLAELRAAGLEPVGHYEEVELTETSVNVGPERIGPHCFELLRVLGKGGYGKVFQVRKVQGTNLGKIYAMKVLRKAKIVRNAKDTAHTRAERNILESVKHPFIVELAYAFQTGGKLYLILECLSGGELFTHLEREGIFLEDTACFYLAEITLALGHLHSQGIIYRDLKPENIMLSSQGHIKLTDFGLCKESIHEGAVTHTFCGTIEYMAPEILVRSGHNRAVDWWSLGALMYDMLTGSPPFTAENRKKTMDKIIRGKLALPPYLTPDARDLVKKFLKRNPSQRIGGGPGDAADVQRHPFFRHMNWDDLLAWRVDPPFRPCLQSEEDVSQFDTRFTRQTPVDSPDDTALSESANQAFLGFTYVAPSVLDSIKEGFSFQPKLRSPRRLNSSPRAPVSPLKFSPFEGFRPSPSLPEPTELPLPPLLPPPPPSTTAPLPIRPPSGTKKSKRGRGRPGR

SMILES: O=C(c1ccc(/C=C/c2n[nH]c3ccccc23)cc1)N1CCNCC1 [KW-2449]
- % Inhibition 2D6 EOMCC (CYP2D6): 1%
- inhibition at 10 µM (RPS6KB2 (p70S6Kb)): 37%
- inhibition at 10 µM (SGKL (SGK3)): 52%
- inhibition at 10 µM (MERTK (cMER) A708S): 74%
- inhibition at 10 µM (MAP4K3 (GLK)): 72%
- inhibition at 10 µM (RET M918T): -40%
- inhibition at 10 µM (EPHB1): 97%
- inhibition at 10 µM (AXL): 95%
- inhibition at 10 µM (PRKACA (PKA)): 76%
- inhibition at 10 µM (SIK1): 82%
- inhibition at 10 µM (GRK4): 61%
- inhibition at 10 µM (PRKCH (PKC eta)): -2%
- inhibition at 10 µM (NEK4): 96%
- inhibition at 10 µM (BRAF): -1%
- inhibition at 10 µM (JAK2 JH1 JH2): 96%
- inhibition at 10 µM (BMPR2): 113%
- inhibition at 10 µM (MAPK11 (p38 beta)): 90%
- inhibition at 10 µM (BRAF V599E): 60%
- inhibition at 10 µM (PI4K2B (PI4K2 beta)): -1%
- inhibition at 10 µM (EEF2K): -1%
- inhibition at 10 µM (GSK3B (GSK3 beta)): 66%
- inhibition at 10 µM (LRRK2 FL): 100%
- inhibition at 10 µM (PIK3C3 (hVPS34)): -3%
- inhibition at 10 µM (MAP2K6 (MKK6)): 79%
- inhibition at 10 µM (MLK4): 17%
- inhibition at 10 µM (MAP3K3 (MEKK3)): 82%
- inhibition at 10 µM (ERBB4 (HER4)): 55%
- inhibition at 10 µM (CSNK1D (CK1 delta)): 53%
- inhibition at 10 µM (EPHA1): 99%
- inhibition at 10 µM (AMPK (A2/B1/G3)): 96%
- inhibition at 10 µM (SRPK2): 32%
- inhibition at 10 µM (TEK (TIE2) Y1108F): 72%
- inhibition at 10 µM (ZAP70): 24%
- % Inhibition Avg (FLT3 ITD): 5%
- inhibition at 10 µM (CDK4/cyclin D3): 83%
- inhibition at 10 µM (FGFR3 G697C): 78%
- inhibition at 10 µM (NEK9): 70%
- inhibition at 10 µM (ULK3): 5%
